The experiment has as its system CEM cells HIV-1 protection, formazan growth assay. Kind of experiment: NCI AIDS Antiviral Assay. The settings on record: for IC50: measured here: growth of uninfected CEM cells. In outline: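 Protection of CEM cells against HIV-1 measured as cell growth via soluble formazan read-out, with five concentrations tested on both infected and uninfected cells; failure to protect may reflect toxicity.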

Active and inactive are the calls of the source.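 How the source made its calls: active means compounds giving half or more protection of infected cells from virus-caused growth loss, again on retest; inactive means the rest.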 Where a SMILES comes first, the peptide text is derived from it. [ ]: non-standard residue; d: D form. The star is where a group is joined. NMeF = CN[CH](Cc1ccccc1)C(=O)O; NMeV = CN[CH](C(=O)O)C(C)C; Boc = CC(C)(C)OC(=O)*; OBn = c1ccc(CO*)cc1

For the molecule `COc1cc2c(cc1OC)CCc1cc(OC)c(OC)cc1CC2`, the EC50 was greater than 200 µM and the IC50 turned out to be 89.1 µM.

With `NCC1OC(OC2C(N)CC(N)C(O)C2OC2OC(CO)C(O)C2O)C(N)C(O)C1O` (configuration not stated), the result was inactive.

In the case of `Clc1ccc(-c2cc[s+]s2)cc1`, the EC50 is greater than 200 µM and the 50% inhibitory concentration (IC50) was 33.1 µM.

On to `c1csc(-c2nn3c(C45CC6CC(CC(C6)C4)C5)nnc3s2)c1`, for which the EC50 is greater than 200 µM and the IC50 was greater than 200 µM.

For `CC(O)CN1C(=O)c2cccc3cc([N+](=O)[O-])cc(c23)C1=O` (configuration not stated), the EC50 was greater than 200 µM and the concentration for half-maximal inhibition (IC50) stood at 12 µM.

For the molecule `O=C(O)CNS(=O)(=O)c1ccc(NC(=O)c2ccc([N+](=O)[O-])cc2)cc1`, the result was inactive.

On to `N#Cc1nc(/C=C/c2nc(C#N)c(N)o2)oc1N`, for which the EC50 was greater than 100 µM and the IC50 was greater than 100 µM.

For `O=C(c1ccc(Cl)cc1)c1ccc(OCCCCCCCCCCOc2ccc(C(=O)c3ccc(Cl)cc3)cc2)cc1`, the EC50 is greater than 16.6 µM and the half-maximal inhibitory concentration (IC50) is greater than 16.6 µM.

As to `Clc1ccc(Cl)c2[s+]snc12`, the EC50 is greater than 14.5 µM and the IC50 was greater than 14.5 µM.

Consider `O=c1[nH]c(Nc2ccc(Cl)c(C(F)(F)F)c2)nc2nc[nH]c12`, for which the EC50 was greater than 200 µM and the IC50 was determined as 89.1 µM.

In the case of `COC(=O)c1cc(C(=O)O)c(=O)n2ccccc12`, the EC50 is greater than 200 µM and the IC50 was 174 µM.

In the case of `O=c1c2ccccc2n2c(=S)[nH]nc2n1-c1ccccc1`, the EC50 is greater than 200 µM and the IC50 is greater than 200 µM.

Turning to `COc1ccc(C2Oc3cc(OC)cc(O)c3C(=O)C2C2C(=O)c3c(O)cc(OC)cc3OC2c2ccc(O)cc2)cc1` (configuration not stated), the EC50 was greater than 200 µM and the 50% inhibitory concentration (IC50) amounted to 37.2 µM.

Take `O=C1OCCN1N1C(=O)CC2(CCCCC2)C1=O`: the EC50 is greater than 200 µM and the IC50 was greater than 200 µM.

For `CSC(=NCCc1c[nH]c2ccccc12)NC#N`, the EC50 was greater than 200 µM and the concentration for half-maximal inhibition (IC50) was greater than 200 µM.

As to `O=c1[nH]oc2ccccc12`, the EC50 was greater than 200 µM and the IC50 is greater than 200 µM.

In the case of `O=C1NS(=O)(=O)c2ccccc21.[Cu+2]`, the EC50 was greater than 1150 µM and the IC50 was 58.9 µM.

On to `O=C(O)CN1CCNCCN(CC(=O)O)CCNCC1`, for which the EC50 was greater than 200 µM and the IC50 was 3.63 µM.

In the case of `CC(=O)OC1CCC2(C)C(C1)CC(OC(C)=O)C1C2CC(OC(C)=O)C2(C)C(C(C)CC=C(c3ccccc3)c3ccccc3)CCC12` (configuration not stated), the EC50 is greater than 7.94 µM and the 50% inhibitory concentration (IC50) amounted to 5.01 µM.

Take `N/N=C1\C(=O)N(C2CCCCC2)C(=O)C1C(=O)NC1CCCCC1` (configuration not stated): the outcome was inactive.

With `O=c1c2ncn(C3CCCO3)c2n(-c2ccccc2)c(=S)n1-c1ccccc1` (configuration not stated), the EC50 is greater than 200 µM and the IC50 is greater than 200 µM.

With `Cc1ccc(S(=O)(=O)Sc2ccccc2)cc1`, the EC50 was greater than 135 µM and the IC50 was found to be 21.9 µM.

Turning to `CCOC(=O)C(NCc1cccc(C(F)(F)F)c1)(NC(=O)CC)C(F)(F)F` (configuration not stated), the EC50 is greater than 200 µM and the IC50 was greater than 100 µM.

For `OCCCNc1ccnc2cc(Cl)ccc12`, the EC50 is greater than 912 µM and the half-inhibitory concentration (IC50) stood at 81.3 µM.

For the molecule `N#CCCN(CCNc1ccccc1)C(=O)Nc1ccc(NC(=O)N(CCC#N)CCNc2ccccc2)cc1`, the EC50 is greater than 200 µM and the IC50 was greater than 200 µM.

Turning to `O=C(NCCCCN(CCCNC(=O)C(F)(F)F)Cc1ccc2ccccc2c1)C(F)(F)F`, the EC50 is greater than 200 µM and the half-maximal inhibitory concentration (IC50) turned out to be 34.7 µM.

For `C[C@@]1(O)C2C3CC4C5C3C1[C@](O)(C42)[C@H]5Br` (some centres not stated), the outcome was inactive.

Turning to `O/N=C1/C2CC3CC1(c1ccccc1)CC(/C3=N/O)/C2=N\O` (configuration not stated), the EC50 was greater than 200 µM and the half-inhibitory concentration (IC50) is greater than 200 µM.

Consider `CC[S+](C)c1ccc(-c2c3nc(c(-c4ccc([S+](C)CC)cc4)c4ccc([nH]4)c(-c4ccc([S+](C)CC)cc4)c4nc(c(-c5ccc([S+](C)CC)cc5)c5ccc2[nH]5)C=C4)C=C3)cc1` (configuration not stated), for which the half-maximal effective concentration (EC50) was 4.79 µM and the IC50 is 13.2 µM.

Take `C=CCCC1(CCP(=O)(c2ccccc2)c2ccccc2)OCCO1`: the EC50 was greater than 708 µM and the half-inhibitory concentration (IC50) amounted to 155 µM.

Take `COc1cc(C(C#N)NNC(=O)c2ccccc2O)ccc1O` (configuration not stated): the EC50 was greater than 5.75 µM and the concentration for half-maximal inhibition (IC50) was determined as 0.427 µM.

As for `CC(C)C(NC(=O)OC(C)(C)C)C(=O)N(C)C(Cc1ccccc1)C(=O)N(C)C(C(=O)N(C)C(C(=O)OCc1ccccc1)C(C)C)C(C)C` (configuration not stated) (Boc-V[NMeF][NMeV][NMeV]-OBn; configuration not given here), the EC50 is greater than 200 µM and the IC50 is greater than 200 µM.

With `CC(C)(Oc1ccc(C(=O)c2ccc(Cl)cc2)cc1Cl)C(=O)Nc1c(Cl)cccc1Cl`, the EC50 was greater than 7.59 µM and the half-inhibitory concentration (IC50) is greater than 7.59 µM.

As to `CCOC(=O)/C=C/C(=O)O/C=C/[N+](=O)[O-]`, the EC50 was 182 µM and the half-maximal inhibitory concentration (IC50) is greater than 200 µM.

Take `COC(=O)C(CCC1(C)OCCO1)=[N+]=[N-]`: the EC50 is greater than 251 µM and the half-inhibitory concentration (IC50) was greater than 251 µM.

In the case of `CC(SC(C)C(=O)N/N=C/c1ccc(B(O)O)cc1)C(=O)N/N=C\c1ccc(B(O)O)cc1` (configuration not stated), the EC50 is greater than 200 µM and the IC50 was greater than 200 µM.

For `N#CC1(C2CC(=O)N(c3ccccc3)C2=O)CCCCC1=O` (configuration not stated), the result was inactive.

Turning to `O=C(NC1C(=O)NC(CCc2ccccc2)NC1=O)OCc1ccccc1` (configuration not stated), the EC50 was greater than 200 µM and the half-inhibitory concentration (IC50) was greater than 200 µM.

For the molecule `Nc1nnc(Sc2ccc([N+](=O)[O-])cc2)s1`, the EC50 was greater than 195 µM and the IC50 turned out to be 11.7 µM.

Take `CC(=O)c1ccc(NC(=O)COC(=O)c2cccc3c(=O)c4ccccc4[nH]c23)cc1`: the result was inactive.

Regarding `O=c1oc2ccccc2c(O)c1Cc1cccc(Cc2c(O)c3ccccc3oc2=O)c1`, the result was active.

Turning to `CCOC(=O)/N=c1/nc2ccn(C)c2c(NC(=O)OCC)s1`, the EC50 was greater than 209 µM and the IC50 was greater than 209 µM.

As to `C=CC1(O)CC(n2cc(C)c(=O)[nH]c2=O)OC1CO` (configuration not stated), the EC50 was greater than 200 µM and the IC50 was greater than 200 µM.

In the case of `COc1ccc(/C=C2/Cc3cccc4c([N+](=O)[O-])ccc2c34)cc1`, the EC50 was greater than 100 µM and the concentration for half-maximal inhibition (IC50) was greater than 100 µM.

Consider `CNC1(C(=O)O)CC1`, for which the EC50 is greater than 200 µM and the IC50 is greater than 200 µM.

Turning to `N.N.N.N.O=S([O-])[O-].[Co+3].[N-]=[N+]=[N-]`, the outcome was inactive.

With `COc1cccc2c1C(=O)c1c(O)c3c(c(O)c1C2=O)C[C@@](O)(C(=O)CO)C[C@@H]3OC1CC(N(C)C)C(O)C(C)O1` (some centres not stated), the EC50 is greater than 0.2 µM and the IC50 stood at 0.0631 µM.

In the case of `O=C(c1ccccc1)c1nc2c(Cl)ccc(Cl)c2cc1C(Br)Br`, the EC50 was greater than 2.19 µM and the IC50 is greater than 2.19 µM.

Regarding `CC(C)(C)C(=O)C(Cc1ccccc1)C(=O)C(C)(C)C`, the result was inactive.

With `O=[N+]([O-])c1cc(Cl)c(O)c(N=Nc2cc(S(=O)(=O)O)c3cccc4c3c2N=NN4)c1`, the EC50 was greater than 91.2 µM and the IC50 stood at 51.3 µM.

For `COC(=O)CN1C(=O)C2(C(=O)OC)OC1(c1ccc([N+](=O)[O-])cc1)C1C(=O)N(c3ccccc3)C(=O)C12` (configuration not stated), the EC50 is greater than 200 µM and the 50% inhibitory concentration (IC50) was greater than 200 µM.

On to `C=CC(=O)NCCSSCCNC(=O)C=C`, for which the EC50 is greater than 200 µM and the concentration for half-maximal inhibition (IC50) was found to be 115 µM.

Take `O=C1C2=C(C(c3ccccc3)=C1c1ccccc1)c1ccccc1C1(c3ccccc3)C2=C(O)C(c2ccccc2)=C1c1ccccc1` (configuration not stated): the result was inactive.

As to `COC(=O)CNC(=O)c1cc(C)cc2c1Oc1c(cc(C)cc1C(=O)NCC(=O)OC)S2`, the EC50 is greater than 200 µM and the IC50 is greater than 200 µM.

On to `CC1CCCN2C(=O)CN(C3CCCCC3)CC(=O)N12` (configuration not stated), for which the EC50 is greater than 200 µM and the half-inhibitory concentration (IC50) is greater than 200 µM.

`CC/C(=N/OC(=O)NC)c1ccccc1`: the EC50 was greater than 200 µM and the concentration for half-maximal inhibition (IC50) is greater than 200 µM.

As to `Cn1cnc(=S)c2ccccc21`, the EC50 was greater than 200 µM and the concentration for half-maximal inhibition (IC50) is greater than 200 µM.

`COc1ccc(S(=O)(=O)NNS(C)(=O)=O)cc1`: the EC50 was greater than 447 µM and the half-inhibitory concentration (IC50) is 87.1 µM.

As for `CN(C)c1ccc(/C=C2\CCc3ccccc3C2=O)cc1`, the EC50 is greater than 9.77 µM and the IC50 stood at 5.5 µM.

Regarding `Cc1cc(O)c2c(c1)C(O)(c1ccc3c(c1O)C(=O)c1c(O)cc(C)cc1C3(O)C1OC(CO)C(O)C(O)C1O)c1cccc(O)c1C2=O` (configuration not stated), the outcome was inactive.

As to `CCOC(C[C@H](O[Si](C)(C)C(C)(C)C)[C@H]1COC(=S)S1)OCC`, the EC50 was greater than 200 µM and the concentration for half-maximal inhibition (IC50) is 155 µM.

With `Cc1ncc([N+](=O)[O-])n1CCN(C)C(=O)CCCn1ccnc1[N+](=O)[O-]`, the EC50 is greater than 200 µM and the IC50 is greater than 200 µM.

On to `COc1ccc(N2C(=O)C3c4[nH]c5ccccc5c4C4c5ccccc5CC4C3C2=O)cc1` (configuration not stated), for which the EC50 was greater than 200 µM and the IC50 was greater than 200 µM.

Consider `CCOP(=O)(Nc1cccc(Cl)c1)OCC`, for which the EC50 was greater than 955 µM.

Take `O=C1/C(=C/c2ccc(Cl)cc2)Oc2cc(O)ccc21`: the EC50 is greater than 200 µM and the IC50 came out at 37.2 µM.

In the case of `COc1ccccc1CO[C@]1(C)CNCC(C)(C)NC(=O)[C@](C)(OCc2ccccc2OC)CNCC(C)(C)NC1=O`, the EC50 was greater than 200 µM and the half-inhibitory concentration (IC50) was determined as 91.2 µM.

For the molecule `O=c1[nH]c(=O)n(C2CCC(COP(=O)(O)O)O2)cc1Cc1ccccc1` (configuration not stated), the EC50 is greater than 468 µM and the 50% inhibitory concentration (IC50) is greater than 468 µM.

On to `COc1ccc(C(=O)c2ccc(OC)c(S(=O)(=O)O)c2)cc1S(=O)(=O)O`, for which the EC50 is greater than 575 µM and the IC50 is greater than 575 µM.

Regarding `O=[N+]([O-])c1ccc(CSCc2ccc([N+](=O)[O-])cc2)cc1`, the EC50 is greater than 200 µM and the concentration for half-maximal inhibition (IC50) is greater than 200 µM.

In the case of `CN(N)c1nc(N)c(C#N)c(C#N)c1C#N`, the EC50 was greater than 100 µM and the IC50 was greater than 100 µM.

As for `O=S(=O)(F)c1cc(Cl)ccc1C[P+](c1ccccc1)(c1ccccc1)c1ccccc1`, the EC50 was greater than 200 µM and the IC50 was determined as 64.6 µM.

With `Cc1nccc2c(C)c3sc4ccccc4c3cc12`, the EC50 was greater than 91.2 µM and the half-inhibitory concentration (IC50) is 2.14 µM.

(Values after PubChem BioAssay AID179 (DTP/NCI, 2004).)
